Data published in PMC6556873, “Rapid Covalent-Probe Discovery by Electrophile-Fragment Screening” (Journal of the American Chemical Society, 2019).
Like-named read-outs stand apart in the source and are kept apart here.

Tests used:
[1] = in vitro; parameters: species or system CCD841, HEK293; settings: human, hb2 cells, read-out: HB-2 Cells Viability (%)
[2] = target: T1, PCAF (Homo sapiens, UniProt Q92831); parameters: Intact protein LC/MS covalent labelling, fragments in pools of five, 200 uM each, 4 °C; settings: 24 h, 4 °C, pool of five; 200 µM; covalent
T1 construct: gene KAT2B

[3] = target: T2, OTUB2 (OTUB2A) (Homo sapiens, UniProt Q96DC9); parameters: Intact protein LC/MS covalent labelling, fragments in pools of five, 200 uM each, 4 °C; settings: 24 h, 4 °C, pool of five; 200 µM; covalent
T2 construct: full length residues 1-234, E. coli BL21(DE3)-R3, His tag removed by TEV, construct 27312 Da
T2 sequence (Q96DC9 1-234): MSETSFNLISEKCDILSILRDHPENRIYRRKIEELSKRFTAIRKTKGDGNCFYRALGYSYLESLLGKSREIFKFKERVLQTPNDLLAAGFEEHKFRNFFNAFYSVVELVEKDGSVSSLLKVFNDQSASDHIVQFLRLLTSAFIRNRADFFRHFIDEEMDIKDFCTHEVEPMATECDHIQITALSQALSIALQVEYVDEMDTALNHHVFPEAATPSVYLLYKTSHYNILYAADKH

[4] = target: T3, NUDT7 (Homo sapiens, UniProt P0C024); parameters: Intact protein LC/MS covalent labelling, fragments in pools of five, 200 uM each, 4 °C; settings: 24 h, 4 °C, pool of five; 200 µM; covalent
T3 construct: residues 14-235, E. coli, pNIC28-Bsa4, N-terminal His6 tag removed by TEV, construct 26672 Da

[5] = target: T4, BSA (Bos taurus, UniProt P02769); parameters: Intact protein LC/MS covalent labelling, fragments in pools of five, 200 uM each, 4 °C; settings: 24 h, 4 °C, pool of five; 200 µM; covalent
T4 construct: gene ALB

[6] = in vitro; parameters: species or system HB2, HEK293; settings: human, ccd841 cells
[7] = in vitro; parameters: species or system HB2, CCD841; settings: human, hek293 cells

T3 sequence (P0C024 14-235): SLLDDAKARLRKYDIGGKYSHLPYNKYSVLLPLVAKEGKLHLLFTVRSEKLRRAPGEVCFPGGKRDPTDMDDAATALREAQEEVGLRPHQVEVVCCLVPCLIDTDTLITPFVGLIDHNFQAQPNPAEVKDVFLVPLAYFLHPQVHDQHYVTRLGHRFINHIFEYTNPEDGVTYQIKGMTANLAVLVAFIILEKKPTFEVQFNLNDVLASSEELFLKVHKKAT
T4 sequence (P02769 whole entry, the tested form may be a part): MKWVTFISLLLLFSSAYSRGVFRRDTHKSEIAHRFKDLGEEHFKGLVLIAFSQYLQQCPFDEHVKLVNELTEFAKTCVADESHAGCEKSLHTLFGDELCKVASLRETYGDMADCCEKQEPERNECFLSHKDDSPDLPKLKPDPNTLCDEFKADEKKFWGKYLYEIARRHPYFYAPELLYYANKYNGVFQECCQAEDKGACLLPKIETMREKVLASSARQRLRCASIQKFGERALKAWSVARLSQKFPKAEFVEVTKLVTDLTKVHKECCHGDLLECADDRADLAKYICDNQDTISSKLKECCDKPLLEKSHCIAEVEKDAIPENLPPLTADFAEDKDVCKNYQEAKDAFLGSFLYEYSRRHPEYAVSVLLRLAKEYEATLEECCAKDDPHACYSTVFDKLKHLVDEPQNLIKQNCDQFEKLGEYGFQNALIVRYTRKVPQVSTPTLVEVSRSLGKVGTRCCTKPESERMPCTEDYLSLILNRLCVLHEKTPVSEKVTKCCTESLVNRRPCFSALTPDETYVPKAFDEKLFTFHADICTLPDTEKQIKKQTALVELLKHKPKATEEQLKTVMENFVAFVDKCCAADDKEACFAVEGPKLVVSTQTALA
T1 sequence (Q92831 whole entry, the tested form may be a part): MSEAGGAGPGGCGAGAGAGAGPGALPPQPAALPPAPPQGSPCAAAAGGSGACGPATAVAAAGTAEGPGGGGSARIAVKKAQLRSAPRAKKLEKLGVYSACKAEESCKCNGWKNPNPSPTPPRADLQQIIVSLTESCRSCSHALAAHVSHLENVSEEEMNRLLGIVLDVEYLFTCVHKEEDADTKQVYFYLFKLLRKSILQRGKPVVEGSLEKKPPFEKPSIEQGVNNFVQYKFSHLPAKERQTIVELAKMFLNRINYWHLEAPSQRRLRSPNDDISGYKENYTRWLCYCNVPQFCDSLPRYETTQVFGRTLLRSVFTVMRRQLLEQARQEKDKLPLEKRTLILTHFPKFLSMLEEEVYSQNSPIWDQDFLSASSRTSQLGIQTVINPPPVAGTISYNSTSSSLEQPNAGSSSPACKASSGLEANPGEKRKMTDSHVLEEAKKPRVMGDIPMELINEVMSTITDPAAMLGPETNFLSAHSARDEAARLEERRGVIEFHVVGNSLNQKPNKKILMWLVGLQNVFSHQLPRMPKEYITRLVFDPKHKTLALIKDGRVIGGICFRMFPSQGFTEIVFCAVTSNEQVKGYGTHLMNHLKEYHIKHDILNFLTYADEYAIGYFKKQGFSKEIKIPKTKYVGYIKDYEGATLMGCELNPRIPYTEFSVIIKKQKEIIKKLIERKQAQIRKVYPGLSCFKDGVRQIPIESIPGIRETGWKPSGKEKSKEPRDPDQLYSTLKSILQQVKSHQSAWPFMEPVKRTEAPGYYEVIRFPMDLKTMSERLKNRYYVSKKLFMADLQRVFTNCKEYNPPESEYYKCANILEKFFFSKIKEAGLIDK

SMILES	viability at 48 h, 10 µM [1]	PCAF [2]	OTUB2 [3]	NUDT7 [4]	BSA [5]	viability at 48 h, 10 µM [6]	viability at 48 h, 10 µM [7]
O=C(CCl)Nc1nnc(C2CC2)o1 [PCM-0102187]	106%	0	0	0	0	114%	97.2%
CC(C)(C)N(Cc1cccc(F)c1)C(=O)CCl [PCM-0102833]	67.5%	0	0	0	0	25.3%	22.2%
C=CC(=O)Nc1ccc(Cl)c(C#N)c1 [PCM-0102453]	85.7%	0	0	0	0	86.4%	59.5%
C=CC(=O)N1CCN(c2ccnc(-c3ccccc3)n2)CC1 [PCM-0102515]	88.8%	0	0	0	0	105%	73%
Cc1cc(C)c(C(C)NC(=O)CCl)cc1C (stereo not drawn) [PCM-0102879]	87.3%	0	0.17	0	0	83.7%	59.6%
Cc1nc(-c2cccc(NC(=O)CCl)c2)cs1 [PCM-0102262]	5.4%	0	0.63	0	0	29.7%	1.7%
C=CC(=O)N1CCC(S(=O)(=O)N2CCCC2)C1 (stereo not drawn) [PCM-0102701]	97.8%	0	0	0	0.12	95.6%	85.2%
Cc1noc(C)c1CNC(=O)CCl [PCM-0102780]	102%	0	0	0.11	0	94.9%	101%
Cc1cc(CNC(=O)CCl)ccc1F [PCM-0102305]	85.5%	0	0.59	0	0.13	80.7%	57.8%
N#Cc1c(NC(=O)CCl)sc2c1CCCC2 [PCM-0102580]	77.2%	0	0.1	0.72	0	78%	67.4%
CC1(C)C(=O)Nc2ccccc2N1C(=O)CCl [PCM-0102546]	48%	0	0.32	0.18	0	78.5%	57.2%
O=C(CCl)Nc1ccc(Br)cn1 [PCM-0102227]	84.3%	0	0	0	0	75.7%	72.4%
COc1ccc2c(c1)CCCN2C(=O)CCl [PCM-0102325]	7.5%	0	0	0.12	0	40.2%	1.8%
COC(=O)CNC(=O)CCl [PCM-0102906]	87.7%	0	0.06	0	0	86.7%	112%
COc1ccccc1N1CCN(C(=O)CCl)CC1.Cl [PCM-0102173]	44.1%	0	0	0	0	76.9%	58.2%
CC1CCCCC1NC(=O)NC(=O)CCl (stereo not drawn) [PCM-0102292]	52.8%	0	0.24	0	0	69%	48.6%
O=C(CCl)N1CCNC1=O [PCM-0102338]	99.5%	0	0	0	0	98.6%	86.5%
CS(=O)(=O)c1ccccc1NC(=O)CCl [PCM-0102141]	96.8%	0	0	0	0	98.2%	96.8%
C=CC(=O)NC1CCc2cnn(C(C)C)c2C1 (stereo not drawn) [PCM-0102487]	95.5%	0	0	0	0	120%	97.7%
O=C(CCl)Nc1nc2c(F)c(F)c(F)cc2s1 [PCM-0102144]	90.9%	0	0	0.32	0.12	57.9%	83.1%
C=CC(=O)NCc1cc2sccc2s1 [PCM-0102986]	98.7%	0	0.08	0	0	111%	78.6%
C=CC(=O)N1CCC(C(=O)c2ccc3c(c2)NC(=O)C(C)O3)CC1 (stereo not drawn) [PCM-0102524]	103%	0	0	0	0	99.7%	80.6%
O=C(CCl)Nc1cc(C(=O)O)ccc1Cl [PCM-0102590]	103%	0	0	0	0	102%	110%
O=C(CCl)NC(=O)Nc1ccc2c(c1)OCO2 [PCM-0102333]	83.2%	0	0.53	0.29	0	98.4%	82.6%
